The target of test [1] is T1, Serine/threonine-protein kinase A-Raf (Homo sapiens) (UniProt P10398).
T1 sequence (whole entry): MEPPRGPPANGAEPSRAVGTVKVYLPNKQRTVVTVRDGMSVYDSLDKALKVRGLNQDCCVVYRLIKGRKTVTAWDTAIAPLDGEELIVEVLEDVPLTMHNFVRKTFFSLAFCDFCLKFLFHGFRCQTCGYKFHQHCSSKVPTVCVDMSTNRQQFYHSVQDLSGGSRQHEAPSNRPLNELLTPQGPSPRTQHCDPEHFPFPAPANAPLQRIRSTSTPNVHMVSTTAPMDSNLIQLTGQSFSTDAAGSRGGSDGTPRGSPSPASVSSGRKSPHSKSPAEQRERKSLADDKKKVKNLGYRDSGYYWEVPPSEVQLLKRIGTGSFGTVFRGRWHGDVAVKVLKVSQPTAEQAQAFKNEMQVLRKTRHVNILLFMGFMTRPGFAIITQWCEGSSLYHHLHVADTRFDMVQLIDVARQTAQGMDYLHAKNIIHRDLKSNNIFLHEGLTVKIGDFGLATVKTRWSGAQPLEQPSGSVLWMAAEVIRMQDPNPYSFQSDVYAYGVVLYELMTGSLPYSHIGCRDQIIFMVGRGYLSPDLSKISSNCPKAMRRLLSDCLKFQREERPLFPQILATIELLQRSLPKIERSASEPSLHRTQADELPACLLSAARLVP
Nature of the test: Inhibition of human ARAF at 500 nM by HotSpot assay relative to control.

Test [2] addresses MAP kinase-interacting serine/threonine-protein kinase 1 (Homo sapiens) (UniProt Q9BUB5). Nature of the test: Inhibition of human MNK1 at 500 nM by HotSpot assay relative to control.
Test [3] concerns the target STE20-like serine/threonine-protein kinase (Homo sapiens) (UniProt Q9H2G2). Nature of the test: Inhibition of human STK2 at 500 nM by HotSpot assay relative to control.
Test [4] has as its target Mitogen-activated protein kinase kinase kinase 20 (Homo sapiens) (UniProt Q9NYL2). Nature of the test: Inhibition of human MLTK at 500 nM by HotSpot assay relative to control.
Test [5] concerns the target Protein kinase C gamma type (Homo sapiens) (UniProt P05129). Nature of the test: Inhibition of human PKCg at 500 nM by HotSpot assay relative to control.
For test [6], the target named is Ribosomal protein S6 kinase alpha-2 (Homo sapiens) (UniProt Q15349). Nature of the test: Inhibition of human RSK3 at 500 nM by HotSpot assay relative to control.
The target in test [7] is Interleukin-1 receptor-associated kinase 1 (Homo sapiens) (UniProt P51617). Nature of the test: Inhibition of human IRAK1 at 500 nM by HotSpot assay relative to control.
Test [8] deals with T2, Dual specificity tyrosine-phosphorylation-regulated kinase 2 (Homo sapiens) (UniProt Q92630).
T2 sequence (whole entry): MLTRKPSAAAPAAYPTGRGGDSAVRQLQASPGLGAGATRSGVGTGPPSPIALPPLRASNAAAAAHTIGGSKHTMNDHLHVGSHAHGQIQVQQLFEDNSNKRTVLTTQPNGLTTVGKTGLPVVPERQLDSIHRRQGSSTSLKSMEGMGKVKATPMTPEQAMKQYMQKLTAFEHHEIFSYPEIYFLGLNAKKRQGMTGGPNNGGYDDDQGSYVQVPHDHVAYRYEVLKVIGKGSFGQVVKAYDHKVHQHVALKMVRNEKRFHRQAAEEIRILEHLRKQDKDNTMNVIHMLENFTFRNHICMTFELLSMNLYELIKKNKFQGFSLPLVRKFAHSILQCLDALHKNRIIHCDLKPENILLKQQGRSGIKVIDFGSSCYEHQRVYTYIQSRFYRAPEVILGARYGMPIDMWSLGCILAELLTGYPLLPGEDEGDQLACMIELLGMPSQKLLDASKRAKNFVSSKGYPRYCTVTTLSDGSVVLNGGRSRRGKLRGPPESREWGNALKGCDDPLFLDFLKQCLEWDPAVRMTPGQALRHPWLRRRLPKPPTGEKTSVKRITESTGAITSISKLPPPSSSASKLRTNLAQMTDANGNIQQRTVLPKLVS
Nature of the test: Inhibition of human DYRK2 at 500 nM by HotSpot assay relative to control.

For test [9], the target named is Platelet-derived growth factor receptor alpha (Homo sapiens) (UniProt P16234). Nature of the test: Inhibition of human PDGFRa at 500 nM by HotSpot assay relative to control.
Test [10] deals with Mitogen-activated protein kinase 3 (Homo sapiens) (UniProt P27361). Nature of the test: Inhibition of human ERK1 at 500 nM by HotSpot assay relative to control.
In test [11] the target is T3, MAP/microtubule affinity-regulating kinase 4 (Homo sapiens) (UniProt Q96L34).
T3 sequence (whole entry): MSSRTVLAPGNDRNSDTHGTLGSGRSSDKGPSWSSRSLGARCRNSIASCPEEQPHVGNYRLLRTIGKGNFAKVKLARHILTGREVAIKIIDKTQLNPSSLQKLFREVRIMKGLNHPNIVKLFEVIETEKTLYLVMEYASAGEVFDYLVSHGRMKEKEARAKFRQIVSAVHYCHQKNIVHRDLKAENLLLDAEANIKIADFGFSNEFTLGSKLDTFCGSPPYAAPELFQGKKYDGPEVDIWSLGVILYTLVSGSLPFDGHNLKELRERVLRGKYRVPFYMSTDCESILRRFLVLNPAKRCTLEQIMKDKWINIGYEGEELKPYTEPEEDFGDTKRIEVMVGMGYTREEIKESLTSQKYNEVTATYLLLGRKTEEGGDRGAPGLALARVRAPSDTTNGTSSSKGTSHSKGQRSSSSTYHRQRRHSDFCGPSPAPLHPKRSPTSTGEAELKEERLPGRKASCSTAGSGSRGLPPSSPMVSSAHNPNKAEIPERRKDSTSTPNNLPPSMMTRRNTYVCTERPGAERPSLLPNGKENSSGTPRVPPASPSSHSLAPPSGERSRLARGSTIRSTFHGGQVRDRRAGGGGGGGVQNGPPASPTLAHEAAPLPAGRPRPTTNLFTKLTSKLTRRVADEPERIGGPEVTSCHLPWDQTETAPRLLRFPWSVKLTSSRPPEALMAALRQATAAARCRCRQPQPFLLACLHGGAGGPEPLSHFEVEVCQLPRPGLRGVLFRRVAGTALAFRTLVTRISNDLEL
Nature of the test: Inhibition of human MARK4 at 500 nM by HotSpot assay relative to control.

For test [12], the target named is Receptor tyrosine-protein kinase erbB-4 (Homo sapiens) (UniProt Q15303). Nature of the test: Inhibition of human ERBB4 at 500 nM by HotSpot assay relative to control.
For test [13], the target named is Calcium/calmodulin-dependent protein kinase type 1G (Homo sapiens) (UniProt Q96NX5). Nature of the test: Inhibition of human CAMK1g at 500 nM by HotSpot assay relative to control.
Test [14] has as its target Casein kinase I isoform gamma-3 (Homo sapiens) (UniProt Q9Y6M4). Nature of the test: Inhibition of human CK1g3 at 500 nM by HotSpot assay relative to control.
For test [15], the target named is Hepatocyte growth factor receptor (Homo sapiens) (UniProt P08581). Nature of the test: Inhibition of human c-MET at 500 nM by HotSpot assay relative to control.

Our source for the inhibition values is ChEMBL document CHEMBL5653615 (J Biol Chem, 2013).

The term inhibition denotes the change of the read-out against control, counted positive when it falls.

Sequence of Casein kinase I isoform gamma-3 (Homo sapiens) (Q9Y6M4 whole entry, looked up, canonical isoform): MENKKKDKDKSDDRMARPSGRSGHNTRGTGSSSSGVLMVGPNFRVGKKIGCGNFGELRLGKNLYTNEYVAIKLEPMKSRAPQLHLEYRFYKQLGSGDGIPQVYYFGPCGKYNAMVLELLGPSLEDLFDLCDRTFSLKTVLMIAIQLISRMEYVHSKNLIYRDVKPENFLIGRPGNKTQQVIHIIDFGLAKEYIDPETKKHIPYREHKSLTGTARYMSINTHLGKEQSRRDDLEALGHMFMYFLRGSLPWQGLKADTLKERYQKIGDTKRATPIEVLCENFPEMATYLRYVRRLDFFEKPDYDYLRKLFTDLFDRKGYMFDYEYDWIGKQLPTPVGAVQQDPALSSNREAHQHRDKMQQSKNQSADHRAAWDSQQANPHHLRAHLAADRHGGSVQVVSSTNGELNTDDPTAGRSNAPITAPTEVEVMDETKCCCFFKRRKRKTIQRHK
Sequence of Receptor tyrosine-protein kinase erbB-4 (Homo sapiens) (Q15303 whole entry): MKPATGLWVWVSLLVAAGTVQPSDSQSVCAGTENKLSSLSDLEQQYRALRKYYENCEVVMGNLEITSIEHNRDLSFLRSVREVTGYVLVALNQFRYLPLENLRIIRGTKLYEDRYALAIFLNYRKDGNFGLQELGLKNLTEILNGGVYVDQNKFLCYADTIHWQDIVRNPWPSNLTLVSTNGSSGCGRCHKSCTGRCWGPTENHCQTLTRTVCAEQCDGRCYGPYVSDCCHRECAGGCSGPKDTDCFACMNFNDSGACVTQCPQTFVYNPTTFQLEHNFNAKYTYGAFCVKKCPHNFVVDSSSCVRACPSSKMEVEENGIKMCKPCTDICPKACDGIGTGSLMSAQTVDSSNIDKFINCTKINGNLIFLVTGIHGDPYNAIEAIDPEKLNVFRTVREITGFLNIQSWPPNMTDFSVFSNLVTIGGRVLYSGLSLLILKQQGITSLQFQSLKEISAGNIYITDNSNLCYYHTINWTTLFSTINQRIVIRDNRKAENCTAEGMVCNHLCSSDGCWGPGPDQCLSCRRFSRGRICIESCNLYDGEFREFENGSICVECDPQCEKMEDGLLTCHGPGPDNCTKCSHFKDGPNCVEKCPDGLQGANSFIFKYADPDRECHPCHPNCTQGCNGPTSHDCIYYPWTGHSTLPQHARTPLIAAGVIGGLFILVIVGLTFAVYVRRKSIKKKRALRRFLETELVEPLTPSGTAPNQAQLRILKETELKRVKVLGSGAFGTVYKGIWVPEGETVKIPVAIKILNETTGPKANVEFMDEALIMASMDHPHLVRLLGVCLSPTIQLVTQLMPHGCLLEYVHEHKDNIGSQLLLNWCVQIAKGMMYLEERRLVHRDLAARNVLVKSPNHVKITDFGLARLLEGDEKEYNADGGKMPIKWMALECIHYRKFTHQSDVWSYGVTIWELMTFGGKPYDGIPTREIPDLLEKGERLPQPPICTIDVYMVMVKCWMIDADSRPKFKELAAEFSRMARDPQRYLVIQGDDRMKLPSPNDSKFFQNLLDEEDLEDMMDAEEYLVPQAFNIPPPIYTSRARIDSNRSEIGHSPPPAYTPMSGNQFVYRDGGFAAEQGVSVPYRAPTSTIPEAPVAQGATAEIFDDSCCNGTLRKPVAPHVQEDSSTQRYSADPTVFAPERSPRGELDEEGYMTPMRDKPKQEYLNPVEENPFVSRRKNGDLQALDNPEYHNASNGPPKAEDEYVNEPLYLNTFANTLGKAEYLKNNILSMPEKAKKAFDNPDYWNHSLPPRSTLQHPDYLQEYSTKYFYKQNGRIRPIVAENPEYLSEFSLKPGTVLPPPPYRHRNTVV
Sequence of Mitogen-activated protein kinase 3 (Homo sapiens) (P27361 whole entry): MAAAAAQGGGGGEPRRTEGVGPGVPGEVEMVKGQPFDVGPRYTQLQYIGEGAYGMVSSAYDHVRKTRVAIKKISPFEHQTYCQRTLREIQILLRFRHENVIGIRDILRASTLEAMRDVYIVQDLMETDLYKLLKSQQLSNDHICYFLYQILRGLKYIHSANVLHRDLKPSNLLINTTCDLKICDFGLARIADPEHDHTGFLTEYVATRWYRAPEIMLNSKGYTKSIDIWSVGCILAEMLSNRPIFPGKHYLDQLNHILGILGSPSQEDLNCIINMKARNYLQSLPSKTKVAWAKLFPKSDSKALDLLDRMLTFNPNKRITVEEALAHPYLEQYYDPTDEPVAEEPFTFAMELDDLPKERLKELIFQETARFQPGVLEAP
Sequence of STE20-like serine/threonine-protein kinase (Homo sapiens) (Q9H2G2 whole entry, looked up): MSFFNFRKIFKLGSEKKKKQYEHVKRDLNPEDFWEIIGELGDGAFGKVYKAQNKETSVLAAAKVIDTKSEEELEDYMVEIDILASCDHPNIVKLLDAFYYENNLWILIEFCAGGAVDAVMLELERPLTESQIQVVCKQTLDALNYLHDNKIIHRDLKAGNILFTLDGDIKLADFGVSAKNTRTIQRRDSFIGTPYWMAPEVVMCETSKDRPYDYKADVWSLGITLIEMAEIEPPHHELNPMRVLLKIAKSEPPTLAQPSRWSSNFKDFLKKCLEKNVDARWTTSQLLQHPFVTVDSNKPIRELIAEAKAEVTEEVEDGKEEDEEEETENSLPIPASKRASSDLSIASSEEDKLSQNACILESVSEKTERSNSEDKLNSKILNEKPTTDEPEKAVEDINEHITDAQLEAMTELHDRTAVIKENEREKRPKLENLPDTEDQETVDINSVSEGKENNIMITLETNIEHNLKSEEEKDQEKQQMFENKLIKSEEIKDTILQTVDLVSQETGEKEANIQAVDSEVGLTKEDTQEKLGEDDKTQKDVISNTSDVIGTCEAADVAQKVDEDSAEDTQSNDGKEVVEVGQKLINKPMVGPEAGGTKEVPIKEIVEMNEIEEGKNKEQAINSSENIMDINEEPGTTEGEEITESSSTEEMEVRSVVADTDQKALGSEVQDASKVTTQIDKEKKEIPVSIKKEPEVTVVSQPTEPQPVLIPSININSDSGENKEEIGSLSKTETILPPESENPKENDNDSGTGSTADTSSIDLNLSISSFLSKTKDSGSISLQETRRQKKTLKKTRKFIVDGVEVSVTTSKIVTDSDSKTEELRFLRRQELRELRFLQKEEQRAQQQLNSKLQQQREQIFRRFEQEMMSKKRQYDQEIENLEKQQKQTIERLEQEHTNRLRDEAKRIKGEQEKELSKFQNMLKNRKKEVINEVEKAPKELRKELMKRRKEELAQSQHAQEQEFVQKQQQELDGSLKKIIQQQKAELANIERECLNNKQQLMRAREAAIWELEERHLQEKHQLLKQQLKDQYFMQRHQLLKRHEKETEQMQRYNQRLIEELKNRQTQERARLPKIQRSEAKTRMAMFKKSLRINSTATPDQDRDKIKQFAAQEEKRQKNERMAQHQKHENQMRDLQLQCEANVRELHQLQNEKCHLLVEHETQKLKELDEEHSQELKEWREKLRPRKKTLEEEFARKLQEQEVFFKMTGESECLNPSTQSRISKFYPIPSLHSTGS
Sequence of Platelet-derived growth factor receptor alpha (Homo sapiens) (P16234 whole entry): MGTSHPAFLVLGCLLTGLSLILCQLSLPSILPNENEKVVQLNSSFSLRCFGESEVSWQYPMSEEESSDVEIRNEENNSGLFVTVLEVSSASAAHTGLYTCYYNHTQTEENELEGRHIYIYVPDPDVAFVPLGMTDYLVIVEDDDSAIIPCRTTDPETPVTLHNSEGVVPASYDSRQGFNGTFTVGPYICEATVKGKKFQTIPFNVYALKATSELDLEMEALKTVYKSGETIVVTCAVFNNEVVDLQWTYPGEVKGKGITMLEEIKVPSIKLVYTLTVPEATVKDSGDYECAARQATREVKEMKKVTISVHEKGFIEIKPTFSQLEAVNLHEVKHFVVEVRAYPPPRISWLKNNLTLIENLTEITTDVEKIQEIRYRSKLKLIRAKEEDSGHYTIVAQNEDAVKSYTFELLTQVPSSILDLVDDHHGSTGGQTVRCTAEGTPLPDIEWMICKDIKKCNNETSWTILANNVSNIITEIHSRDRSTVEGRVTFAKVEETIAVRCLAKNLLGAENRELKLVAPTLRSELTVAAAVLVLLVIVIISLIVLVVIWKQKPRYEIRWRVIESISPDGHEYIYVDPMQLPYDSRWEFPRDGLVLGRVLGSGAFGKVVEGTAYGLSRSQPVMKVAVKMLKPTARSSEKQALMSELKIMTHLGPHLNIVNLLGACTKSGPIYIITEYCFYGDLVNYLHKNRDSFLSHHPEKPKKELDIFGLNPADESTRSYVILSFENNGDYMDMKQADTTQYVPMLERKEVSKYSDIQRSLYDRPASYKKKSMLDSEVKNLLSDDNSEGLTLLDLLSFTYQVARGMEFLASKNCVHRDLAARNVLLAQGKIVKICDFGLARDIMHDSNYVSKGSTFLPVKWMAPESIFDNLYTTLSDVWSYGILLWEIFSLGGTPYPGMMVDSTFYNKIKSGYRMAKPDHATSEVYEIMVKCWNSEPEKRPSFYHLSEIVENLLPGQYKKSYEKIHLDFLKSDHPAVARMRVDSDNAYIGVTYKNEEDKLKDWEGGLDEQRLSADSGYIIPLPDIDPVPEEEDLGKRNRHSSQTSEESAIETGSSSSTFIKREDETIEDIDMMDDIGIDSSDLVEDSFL
Sequence of Calcium/calmodulin-dependent protein kinase type 1G (Homo sapiens) (Q96NX5 whole entry, canonical isoform): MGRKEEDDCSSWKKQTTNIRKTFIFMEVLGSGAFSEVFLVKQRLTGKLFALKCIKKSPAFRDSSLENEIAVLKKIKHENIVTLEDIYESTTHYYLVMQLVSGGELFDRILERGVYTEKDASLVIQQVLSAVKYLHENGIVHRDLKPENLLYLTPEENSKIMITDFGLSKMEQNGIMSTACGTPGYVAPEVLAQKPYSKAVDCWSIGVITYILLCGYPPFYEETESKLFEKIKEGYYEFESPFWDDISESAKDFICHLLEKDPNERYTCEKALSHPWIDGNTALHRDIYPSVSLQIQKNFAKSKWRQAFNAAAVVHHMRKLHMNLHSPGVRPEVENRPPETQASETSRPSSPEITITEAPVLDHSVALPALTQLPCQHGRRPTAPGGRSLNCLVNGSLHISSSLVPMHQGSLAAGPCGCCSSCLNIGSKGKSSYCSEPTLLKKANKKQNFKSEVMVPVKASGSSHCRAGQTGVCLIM

As for `Nc1n[nH]c2nnc(-c3c(-c4ccccc4)nn4ccccc34)cc12`, the inhibition in test [1] is 1.59%; in test [2], 1.48%; in test [3], 6.01%; in test [4] it was -1.29%; in test [5], -2.64%; in test [6], 3.51%. Also, the inhibition in test [7] was 0.31%; in test [8] it was -3.42%; in [9], 0.32%; in [10], 34.2%; in test [11] it was -4.7%; in [12], 8.64%. For the same molecule, the results for the inhibition in [13], in [14] and in test [15] were 0.77%, 6.29% and 5.04%, respectively.

Take `Oc1n[nH]c2nnc(-c3c(-c4ccccc4)nn4ccccc34)cc12`: the inhibition in [1] is 2.19%; in test [2], 0.89%; in [3], 0.54%; in test [4], -0.11%; in test [5] it was -2.44%; in test [6] it was -4.14%. Moreover, the inhibition in test [7] was -2.21%; in [8], -3.03%; in test [9] it was -1.33%; in test [10], -2.01%; in test [11], -3.17%; in [12] it was -0.52%. Moreover, the inhibition in test [13] was 0.26%; in test [14] it was -4.44%; in test [15], 4.83%.
